In US12435061B2 (priority 2020, dated 2025):
Like-named read-outs stand apart in the source and are kept apart here.

Molecular target: hTRPV3 (Homo sapiens (Human), UniProt Q8NET8)
Test: Whole-cell patch clamp, hTRPV3 Phase 1 / Phase 2 currents
Format: cell-based
Outline: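 Whole-cell recordings on induced TRPV3 cells replated on coverslips, held at −40 mV with 400 ms ramps from −120 to +100 mV every 5 s; currents read at −80 and +80 mV. Ringer's external solution; current activated by heating to ≥28 °C or 20 μM 2-APB.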

[1] = Phase 1 current, inward, whole-cell patch clamp, read-out: hTRPV3 Patch P1 Inwd
[2] = Phase 1 current, read-out: hTRPV3 (nM) (Phase 1)
[3] = Phase 2 current, inward, whole-cell patch clamp, read-out: hTRPV3 Patch P2 Inwd
[4] = Phase 2 current, read-out: hTRPV3 (nM) (Phase 2)

Sequence of hTRPV3 (Q8NET8 whole entry): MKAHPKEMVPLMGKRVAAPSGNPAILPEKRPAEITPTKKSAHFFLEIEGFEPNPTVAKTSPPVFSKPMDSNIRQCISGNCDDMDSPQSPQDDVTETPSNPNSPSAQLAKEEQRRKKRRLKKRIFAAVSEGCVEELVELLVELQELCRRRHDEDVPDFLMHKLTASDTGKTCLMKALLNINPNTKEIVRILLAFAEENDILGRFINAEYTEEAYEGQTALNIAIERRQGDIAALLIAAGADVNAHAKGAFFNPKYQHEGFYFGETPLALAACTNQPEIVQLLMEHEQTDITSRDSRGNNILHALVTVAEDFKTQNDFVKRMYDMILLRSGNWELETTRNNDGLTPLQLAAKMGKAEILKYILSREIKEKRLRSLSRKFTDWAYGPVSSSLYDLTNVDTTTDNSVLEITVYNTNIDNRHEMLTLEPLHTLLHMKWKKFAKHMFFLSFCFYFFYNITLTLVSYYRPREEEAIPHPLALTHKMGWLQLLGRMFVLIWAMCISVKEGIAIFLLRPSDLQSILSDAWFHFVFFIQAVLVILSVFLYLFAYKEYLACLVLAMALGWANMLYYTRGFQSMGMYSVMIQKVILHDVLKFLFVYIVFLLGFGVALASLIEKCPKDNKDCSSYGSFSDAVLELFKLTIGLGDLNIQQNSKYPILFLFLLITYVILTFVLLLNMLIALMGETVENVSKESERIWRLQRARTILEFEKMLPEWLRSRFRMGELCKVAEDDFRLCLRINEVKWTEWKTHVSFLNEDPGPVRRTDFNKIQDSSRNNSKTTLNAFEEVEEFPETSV

OCc1cc(Oc2ccccc2F)ccc1N1CC[C@H](Oc2ncccc2F)C1 [Compound 1-298, (S)-(5-(2-fluorophenoxy)-2-(3-(3-fluoropyridin-2-yloxy)pyrrolidin-1-yl)phenyl)methanol]
IC50 [1]: 10 to 100 nM
IC50 [2]: 65.7 nM
IC50 [3]: 10 to 100 nM
IC50 [4]: 52.9 nM

CC(C)(C)OC(=O)N1CC=C(c2ccc(N3CC[C@H](Oc4ccc(C(F)(F)F)cn4)C3)c(CCO)c2)CC1 [Compound 1-299, (S)-tert-butyl 4-(3-(2-hydroxyethyl)-4-(3-(5-(trifluoromethyl)pyridin-2-yloxy)pyrrolidin-1-yl)phenyl)-5,6-dihydropyridine-1 (2H)-carboxylate]
IC50 [1]: > 1000 nM
IC50 [2]: > 3200 nM

Cc1ccc(C(=O)c2ccc(N3CC[C@H](Oc4ncccc4F)C3)c(CO)c2)cc1 [Compound 1-300, (S)-(4-(3-(3-fluoropyridin-2-yloxy)pyrrolidin-1-yl)-3-(hydroxymethyl)phenyl)(p-tolyl)methanone]
IC50 [1]: 100 to 1000 nM
IC50 [2]: 860 nM

CC(C)(C)OC(=O)N1CCC(c2ccc(N3CC[C@H](Oc4ccc(C(F)(F)F)cn4)C3)c(CCO)c2)CC1 [Compound 1-301, (S)-tert-butyl 4-(3-(2-hydroxyethyl)-4-(3-(5-(trifluoromethyl)pyridin-2-yloxy)pyrrolidin-1-yl)phenyl)piperidine-1-carboxylate]
IC50 [1]: > 1000 nM
IC50 [2]: ~2980 nM

COc1ccc(Oc2ccc(N3CC[C@H](Oc4ccccn4)C3)c(CO)c2)cc1 [Compound 1-302]
IC50 [1]: 100 to 1000 nM
IC50 [2]: 282 nM

OCc1cc(Oc2ccc(Cl)c(C(F)(F)F)c2)ccc1N1CC[C@H](Oc2ccccn2)C1 [Compound 1-303]
IC50 [1]: 10 to 100 nM
IC50 [2]: 56.3 nM

N#Cc1cc(Br)ccc1N1CC[C@H](Oc2ncccc2Cl)C1 [Compound 1-305]
IC50 [1]: > 1000 nM

CC(=O)c1ccc(Oc2ccc(N3CC[C@H](Oc4ccccn4)C3)c(CO)c2)c(F)c1 [Compound 1-306]
IC50 [1]: 100 to 1000 nM
IC50 [2]: 982 nM
IC50 [3]: 100 to 1000 nM
IC50 [4]: 735 nM

OCc1cc(Oc2cccc(OC(F)(F)F)c2)ccc1N1CC[C@H](Oc2ccccn2)C1 [Compound 1-307]
IC50 [1]: 10 to 100 nM
IC50 [2]: ~59.5 nM

CCc1ccccc1Oc1ccc(N2CC[C@H](Oc3ncccc3Cl)C2)c(C#N)c1 [Compound 1-308]
IC50 [1]: > 1000 nM
IC50 [2]: > 3200 nM

Cc1ccc(C(=O)c2ccc(N3CC[C@H](Oc4ncccc4F)C3)c(CCO)c2)cc1 [Compound 1-309, (S)-(4-(3-(3-fluoropyridin-2-yloxy)pyrrolidin-1-yl)-3-(2-hydroxyethyl)phenyl)(p-tolyl)methanone]
IC50 [1]: > 1000 nM
IC50 [2]: ~2080 nM
IC50 [3]: 100 to 1000 nM
IC50 [4]: 822 nM

Cc1ccc(C(O)c2ccc(N3CC[C@H](Oc4ncccc4Cl)C3)c(CCO)c2)cc1 (stereo partly drawn) [Compound 1-310, 2-(2-((S)-3-(3-chloropyridin-2-yloxy)pyrrolidin-1-yl)-5-(hydroxy(p-tolyl)methyl)phenyl)ethanol]
IC50 [1]: > 1000 nM
IC50 [2]: 4200 nM

O=C(c1cccc(F)c1)c1ccc(N2CC[C@H](Oc3ncccc3Cl)C2)c(CCO)c1 [Compound 1-311, (S)-(4-(3-(3-chloropyridin-2-yloxy)pyrrolidin-1-yl)-3-(2-hydroxyethyl)phenyl)(3-fluorophenyl)methanone]
IC50 [1]: 100 to 1000 nM
IC50 [2]: 417 nM

OCCc1cc(C(O)c2cccc(F)c2)ccc1N1CC[C@H](Oc2ncccc2Cl)C1 (stereo partly drawn) [Compound 1-312, 2-(2-((S)-3-(3-chloropyridin-2-yloxy)pyrrolidin-1-yl)-5-((3-fluorophenyl)(hydroxy)methyl)phenyl)ethanol]
IC50 [1]: > 1000 nM
IC50 [2]: ~1920 nM

O=C(c1cccc(Cl)c1)c1ccc(CCO)c(N2CC[C@H](Oc3ncccc3Cl)C2)c1 [Compound 1-314, (S)-(3-chlorophenyl)(3-(3-(3-chloropyridin-2-yloxy)pyrrolidin-1-yl)-4-(2-hydroxyethyl)phenyl)methanone]
IC50 [1]: 100 to 1000 nM
IC50 [2]: 229 nM
IC50 [3]: 100 to 1000 nM
IC50 [4]: 307 nM

O=C(c1ccc(F)cc1)c1ccc(N2CC[C@H](Oc3ncccc3Cl)C2)c(CCO)c1 [Compound 1-315, (S)-(4-(3-(3-chloropyridin-2-yloxy)pyrrolidin-1-yl)-3-(2-hydroxyethyl)phenyl)(4-fluorophenyl)methanone]
IC50 [1]: > 1000 nM
IC50 [2]: 1260 nM

O=C(Nc1ccc(F)cc1)c1ccc(N2CC[C@H](Oc3ncccc3Cl)C2)c(CCO)c1 [Compound 1-319, (S)-4-(3-(3-chloropyridin-2-yloxy)pyrrolidin-1-yl)-N-(4-fluorophenyl)-3-(2-hydroxyethyl)benzamide]
IC50 [1]: > 1000 nM
IC50 [2]: 3440 nM

O=C(Nc1ccccc1)c1ccc(N2CC[C@H](Oc3ncccc3Cl)C2)c(CCO)c1 [Compound 1-320, (S)-4-(3-(3-chloropyridin-2-yloxy)pyrrolidin-1-yl)-3-(2-hydroxyethyl)-N-phenylbenzamide]
IC50 [1]: > 1000 nM
IC50 [2]: ~4660 nM

OCc1nc(-c2ccccc2)ccc1N1C[C@@H](O)[C@H](Oc2ccc(C(F)(F)F)cn2)C1 [Compound 1-323]
IC50 [1]: > 1000 nM
IC50 [2]: 3610 nM

CCc1ccccc1Oc1ccc(N2CC[C@H](Oc3ncccc3Cl)C2)c(C(N)=O)c1 [Compound 1-324]
hTRPV3 (nM) (Phase 1) (Phase 1 current): Incomplete Block (Phase 1)

CC(C)c1ccc(Oc2ccc(N3CC[C@H](Oc4ccccn4)C3)c(CO)c2)cc1 [Compound 1-325]
hTRPV3 (nM) (Phase 1) (Phase 1 current): Incomplete Block (Phase 1)

CC(O)c1cc(F)ccc1Oc1ccc(N2CC[C@H](Oc3ccccn3)C2)c(CO)c1 (some centres unmarked) [Compound 1-326]
IC50 [1]: > 1000 nM
IC50 [2]: 1470 nM
IC50 [3]: 100 to 1000 nM
IC50 [4]: 575 nM

O=C(c1cccc(Cl)c1)c1ccc(N2CC[C@H](Oc3ncccc3Cl)C2)c(CCO)c1 [Compound 1-328, (S)-(3-chlorophenyl)(4-(3-(3-chloropyridin-2-yloxy)pyrrolidin-1-yl)-3-(2-hydroxyethyl)phenyl)methanone]
IC50 [1]: 100 to 1000 nM
IC50 [2]: 615 nM

OCCc1cc(C(O)c2cccc(Cl)c2)ccc1N1CC[C@H](Oc2ncccc2Cl)C1 (stereo partly drawn) [Compound 1-329, 2-(5-((3-chlorophenyl)(hydroxy)methyl)-2-((S)-3-(3-chloropyridin-2-yloxy)pyrrolidin-1-yl)phenyl)ethanol]
IC50 [1]: > 1000 nM
IC50 [2]: 3100 nM

CC(C)c1ccccc1Oc1ccc(N2CC[C@H](Oc3ncccc3F)C2)c(CCO)c1 [Compound 1-331, (S)-2-(2-(3-(3-fluoropyridin-2-yloxy)pyrrolidin-1-yl)-5-(2-isopropylphenoxy)phenyl)ethanol]
IC50 [1]: 10 to 100 nM
IC50 [2]: 28 nM

O=C(c1ccc(N2CC[C@H](Oc3ccccn3)C2)c(CO)c1)c1ccccc1Cl [Compound 1-332, (S)-(2-chlorophenyl)(3-(hydroxymethyl)-4-(3-(pyridin-2-yloxy)pyrrolidin-1-yl)phenyl) methanone]
IC50 [1]: > 1000 nM
IC50 [2]: > 3200 nM
IC50 [3]: > 1000 nM
IC50 [4]: > 3200 nM

OCc1cc(Oc2ccccc2F)ccc1N1CC[C@H](Oc2ccccn2)C1 [Compound 1-333]
IC50 [1]: 100 to 1000 nM
IC50 [2]: 207 nM
IC50 [3]: 100 to 1000 nM
IC50 [4]: 111 nM

OCCc1cc(Oc2ccccc2F)ccc1N1CC[C@H](Oc2ccccn2)C1 [Compound 1-334]
IC50 [1]: 100 to 1000 nM
IC50 [2]: 289 nM
IC50 [3]: 100 to 1000 nM
IC50 [4]: ~243 nM

CCc1ccccc1Oc1ccc(N2CC[C@H](Oc3ccccn3)C2)c(CCO)c1 [Compound 1-335]
IC50 [1]: 10 to 100 nM
IC50 [2]: 66.3 nM

COc1ccccc1Oc1ccc(N2CC[C@H](Oc3ccc(F)cn3)C2)c(CO)c1 [Compound 1-336, (S)-(2-(3-(5-fluoropyridin-2-yloxy)pyrrolidin-1-yl)-5-(2-methoxyphenoxy)phenyl)methanol]
IC50 [1]: 100 to 1000 nM
IC50 [2]: 329 nM
IC50 [3]: 100 to 1000 nM
IC50 [4]: 384 nM

CN(C(=O)c1ccc(N2CC[C@H](Oc3ncccc3Cl)C2)c(CCO)c1)c1ccccc1 [Compound 1-337, (S)-4-(3-(3-chloropyridin-2-yloxy)pyrrolidin-1-yl)-3-(2-hydroxyethyl)-N-methyl-N-phenylbenzamide]
IC50 [1]: > 1000 nM
IC50 [2]: > 3200 nM

OCc1cc(C(O)c2ccccc2Cl)ccc1N1CC[C@H](Oc2ccccn2)C1 (stereo partly drawn) [Compound 1-338, (2-chlorophenyl)(3-(hydroxymethyl)-4-((S)-3-(pyridin-2-yloxy)pyrrolidin-1-yl)phenyl)methanol]
IC50 [1]: 100 to 1000 nM
IC50 [2]: 196 nM

COc1ccccc1Oc1ccc(N2CC[C@H](Oc3ccccn3)C2)c(CO)c1 [Compound 1-339, (S)-(5-(2-methoxyphenoxy)-2-(3-(pyridin-2-yloxy)pyrrolidin-1-yl)phenyl)methanol]
IC50 [1]: 100 to 1000 nM
IC50 [2]: 521 nM

COCc1ccccc1Oc1ccc(N2CC[C@H](Oc3ccc(F)cn3)C2)c(CCO)c1 [Compound 1-341, (S)-2-(2-(3-(5-fluoropyridin-2-yloxy)pyrrolidin-1-yl)-5-(2-(methoxymethyl)phenoxy)phenyl)ethanol]
IC50 [1]: 100 to 1000 nM
IC50 [2]: 877 nM
IC50 [3]: 100 to 1000 nM
IC50 [4]: 748 nM

CCc1ccccc1S(=O)(=O)c1ccc(N2CC[C@H](Oc3ncccc3Cl)C2)c(CCO)c1 [Compound 1-342]
IC50 [3]: > 1000 nM

CC(=O)c1cc(F)ccc1Oc1ccc(N2CC[C@H](Oc3ccccn3)C2)c(CO)c1 [Compound 1-343]
IC50 [1]: 100 to 1000 nM
IC50 [2]: 199 nM

OCc1cc(Oc2ccc(Cl)c(Cl)c2)ccc1N1CC[C@H](Oc2ccccn2)C1 [Compound 1-344]
IC50 [1]: 10 to 100 nM
IC50 [2]: 65.3 nM

COc1ccccc1Oc1ccc(N2CC[C@H](Oc3ccc(C)cn3)C2)c(CO)c1 [Compound 1-345, (S)-(5-(2-methoxyphenoxy)-2-(3-(5-methylpyridin-2-yloxy)pyrrolidin-1-yl)phenyl)methanol]
IC50 [1]: > 1000 nM
IC50 [2]: ~2450 nM
